According to patent publication US20240279214A1, “ALPHA4 BETA7 INEGRIN ANTAGONISTS AND USES THEREOF” (XinThera, Inc., priority 2022, published 2024):
Where two headings read alike, the source gives them in different places.

Details: 13-membered ring

## CCOC(=O)C[C@H](NC(=O)C(c1cc(Br)ccc1F)n1ccc(C(F)(F)F)c(Cl)c1=O)c1cc(-c2c(C)cccc2O)cc(C)c1F (some centres unmarked)
The molecule shown is the open-chain precursor, ether bond, CuI/K2CO3/(1R,2R)-N1,N2-dimethylcyclohexane-1,2-diamine, 1,4-dioxane, 43.3 mM, 100.0 °C
  ring closure, isolated yield: 56.1%

## CCOC(=O)C[C@H](NC(=O)C(c1cc(Cl)cc(Br)c1)n1cc(CCN2CC(F)C2)c(C(F)(F)F)cc1=O)c1cc(-c2c(O)ccc(F)c2C)cc(C)c1F (some centres unmarked)
The molecule shown is the open-chain precursor, ether bond, CuI/(1R,2R)-N1,N2-dimethylcyclohexane-1,2-diamine/K2CO3, dioxane, 22.0 mM, 100.0 °C
  ring closure, isolated yield: 98.3%

## CCOC(=O)C[C@@H]1NC(=O)C(n2cc(CCN3CCC(F)(F)CC3)c(C(F)(F)F)cc2=O)c2cc(ccc2F)Oc2cccc(C)c2-c2cc(C)c(F)c1c2 (some centres unmarked)
From CCOC(=O)C[C@H](NC(=O)C(c1cc(Br)ccc1F)n1cc(CCN2CCC(F)(F)CC2)c(C(F)(F)F)cc1=O)c1cc(-c2c(C)cccc2O)cc(C)c1F, ether bond, CuI/K2CO3/(1R,2R)-N1,N2-dimethylcyclohexane-1,2-diamine, 1,4-dioxane, 36.3 mM, 100.0 °C, 16.0 h
  ring closure, isolated yield: 66.2%

## CCOC(=O)C[C@@H]1NC(=O)C(n2cc(CCN3CC(F)C3)c(C(F)(F)F)cc2=O)c2cc(cc(C(F)(F)F)c2)Oc2cccc(C)c2-c2cc1c(F)c(C(F)(F)F)c2 (some centres unmarked)
From CCOC(=O)C[C@H](NC(=O)C(c1cc(Br)cc(C(F)(F)F)c1)n1cc(CCN2CC(F)C2)c(C(F)(F)F)cc1=O)c1cc(-c2c(C)cccc2O)cc(C(F)(F)F)c1F, ether bond, CuI/(1R,2R)-N1,N2-dimethylcyclohexane-1,2-diamine/K2CO3, dioxane, 15.0 mM, 100.0 °C, 2.0 h
  ring closure, isolated yield: 64.3%

## CCOC(=O)C[C@@H]1NC(=O)C(n2cc(CCN3CC(F)C3)cc(CC)c2=O)c2cc(ccc2F)Oc2cccc(C)c2-c2cc(C)c(F)c1c2 (stereo in doubt)
From CCOC(=O)C[C@H](NC(=O)C(c1cc(Br)ccc1F)n1cc(CCN2CC(F)C2)cc(CC)c1=O)c1cc(-c2c(C)cccc2O)cc(C)c1F, ether bond, CuI/(1R,2R)-N,N'-dimethylcyclohexane-1,2-diamine/K2CO3, dioxane, 40.0 mM, 100.0 °C, 16.0 h
  ring closure, isolated yield: 46.5%

## CCOC(=O)C[C@@H]1NC(=O)C(n2cc(CCN3CC(F)C3)c(C(F)(F)F)cc2=O)c2cc(ccc2F)Oc2cc(C3COC3)cc(C)c2-c2cc(C)c(F)c1c2 (some centres unmarked)
From CCOC(=O)C[C@H](NC(=O)C(c1cc(Br)ccc1F)n1cc(CCN2CC(F)C2)c(C(F)(F)F)cc1=O)c1cc(-c2c(C)cc(C3COC3)cc2O)cc(C)c1F, ether bond, CuI/(1R,2R)-N1,N2-dimethylcyclohexane-1,2-diamine/K2CO3, 1,4-dioxane, 25.0 mM, 100.0 °C, 1.0 h
  ring closure, isolated yield: 31.8%

## CCOC(=O)C[C@H](NC(=O)C(c1cc(Cl)cc(Br)c1)n1cc(CCN2CC(F)C2)c(C(F)(F)F)cc1=O)c1cc(-c2c(C)cccc2O)cc(C(F)(F)F)c1F (some centres unmarked)
The molecule shown is the open-chain precursor, ether bond, CuI/(1R,2R)-N1,N2-dimethylcyclohexane-1,2-diamine/K2CO3, dioxane, 19.0 mM, 100.0 °C
  ring closure, isolated yield: 56%

## CCOC(=O)C[C@@H]1NC(=O)C(n2cc(CCN3CC(F)C3)c(C(F)(F)F)cc2=O)c2cc(ccc2F)Oc2nn(CC3CC3)cc2-c2cc(C)c(F)c1c2 (some centres unmarked)
From CCOC(=O)C[C@H](N)c1cc(-c2cn(CC3CC3)nc2Oc2ccc(F)c(C(C(=O)O)n3cc(CCN4CC(F)C4)c(C(F)(F)F)cc3=O)c2)cc(C)c1F, amide bond, EDCI/HOBt/DIEA, MeCN, 45.0 mM, 60.0 °C, 2.0 h
  ring closure, isolated yield: 14.6%

## CCOC(=O)C[C@@H]1NC(=O)C(n2cc(CCN3CC(F)C3)c(C(F)(F)F)cc2=O)c2cc(ccc2F)Oc2cccc(C)c2-c2cc(C)c(F)c1c2 (some centres unmarked)
From CCOC(=O)C[C@H](NC(=O)C(c1cc(Br)ccc1F)n1cc(CCN2CC(F)C2)c(C(F)(F)F)cc1=O)c1cc(-c2c(C)cccc2O)cc(C)c1F, ether bond, CuI/N1,N2-dimethylcyclohexane-1,2-diamine/K2CO3, dioxane, 18.7 mM, 100.0 °C, 16.0 h
  ring closure, isolated yield: 72.5%

## CCOC(=O)C[C@@H]1NC(=O)C(n2cc(CCN3CC(F)C3)c(C(F)(F)F)cc2=O)c2cc(cc(C(F)(F)F)c2)Oc2cccc(C)c2-c2cc(C)c(F)c1c2 (stereo in doubt)
From CCOC(=O)C[C@H](NC(=O)C(c1cc(Br)cc(C(F)(F)F)c1)n1cc(CCN2CC(F)C2)c(C(F)(F)F)cc1=O)c1cc(-c2c(C)cccc2O)cc(C)c1F, ether bond, CuI/K2CO3/(1R,2R)-N1,N2-dimethylcyclohexane-1,2-diamine, dioxane, 90.0 mM, 100.0 °C, 2.0 h
  ring closure, isolated yield: 69%

## CCOC(=O)C[C@@H]1NC(=O)C(n2cc3ccccc3cc2=O)c2cc(ccc2F)Oc2cccc(C)c2-c2cc(C)c(F)c1c2 (some centres unmarked)
From CCOC(=O)C[C@H](NC(=O)C(c1cc(Br)ccc1F)n1cc2ccccc2cc1=O)c1cc(-c2c(C)cccc2O)cc(C)c1F, ether bond, CuI/(1R,2R)-N,N'-dimethylcyclohexane-1,2-diamine/K2CO3, dioxane, 58.0 mM, 100.0 °C, 2.0 h
  ring closure, isolated yield: 33.9%

## CCOC(=O)C[C@@H]1NC(=O)C(n2ccc(C(F)(F)F)c(C3CC3)c2=O)c2cc(ccc2F)Oc2cccc(C)c2-c2cc(C)c(F)c1c2 (stereo in doubt)
From CCOC(=O)C[C@H](NC(=O)C(c1cc(Br)ccc1F)n1ccc(C(F)(F)F)c(C2CC2)c1=O)c1cc(-c2c(C)cccc2O)cc(C)c1F, ether bond, CuI/K2CO3/(1R,2R)-N1,N2-dimethylcyclohexane-1,2-diamine, dioxane, 45.0 mM, 100.0 °C
  ring closure, isolated yield: 46.7%

## CCOC(=O)C[C@@H]1NC(=O)C(n2cc(CCN3CC(F)C3)c(C(F)(F)F)cc2=O)c2cc(ccc2Cl)Oc2cccc(C)c2-c2cc(C)c(F)c1c2 (stereo in doubt)
From CCOC(=O)C[C@H](NC(=O)C(c1cc(Br)ccc1Cl)n1cc(CCN2CC(F)C2)c(C(F)(F)F)cc1=O)c1cc(-c2c(C)cccc2O)cc(C)c1F, ether bond, CuI/K2CO3/(1R,2R)-N1,N2-dimethylcyclohexane-1,2-diamine, 1,4-dioxane, 26.7 mM, 100.0 °C, 16.0 h
  ring closure, isolated yield: 50.3%

## CCOC(=O)C[C@@H]1NC(=O)C(n2cc(CCN3CC(F)C3)cc(C)c2=O)c2cc(ccc2F)Oc2cccc(C)c2-c2cc(C)c(F)c1c2 (some centres unmarked)
From CCOC(=O)C[C@H](NC(=O)C(c1cc(Br)ccc1F)n1cc(CCN2CC(F)C2)cc(C)c1=O)c1cc(-c2c(C)cccc2O)cc(C)c1F, ether bond, CuI/K2CO3/(1R,2R)-N1,N2-dimethylcyclohexane-1,2-diamine, 1,4-dioxane, 20.0 mM, 100.0 °C, 16.0 h
  ring closure, isolated yield: 70.9%

## CCOC(=O)C[C@@H]1NC(=O)C(n2cc(CCN3CC(F)C3)c(C(F)(F)F)cc2=O)c2cc(ccc2F)Oc2cccc(C)c2-c2cc(C3CC3)c(F)c1c2 (stereo in doubt)
From CCOC(=O)C[C@H](NC(=O)C(c1cc(Br)ccc1F)n1cc(CCN2CC(F)C2)c(C(F)(F)F)cc1=O)c1cc(-c2c(C)cccc2O)cc(C2CC2)c1F, ether bond, CuI/K2CO3/(1R,2R)-N1,N2-dimethylcyclohexane-1,2-diamine, dioxane, 25.0 mM, 100.0 °C, 16.0 h
  ring closure, isolated yield: 67.3%

## CCOC(=O)C[C@@H]1NC(=O)C(n2cc(CCN3CC(F)C3)c(C(F)(F)F)cc2=O)c2cc(ccc2F)Oc2cc(C)cc(C)c2-c2cc(C)c(F)c1c2 (some centres unmarked)
From CCOC(=O)C[C@H](NC(=O)C(c1cc(Br)ccc1F)n1cc(CCN2CC(F)C2)c(C(F)(F)F)cc1=O)c1cc(-c2c(C)cc(C)cc2O)cc(C)c1F, ether bond, CuI/K2CO3/(1R,2R)-N1,N2-dimethylcyclohexane-1,2-diamine, dioxane, 66.0 mM, 100.0 °C, 16.0 h
  ring closure, isolated yield: 49.3%

## ethyl 2-((5S,8S)-1^4,4^4-difluoro-5-(5-(2-(3-fluoroazetidin-1-yl)ethyl)-2-oxo-4-(trifluoromethyl)pyridin-1(2H)-yl)-2^6-methyl-6-oxo-3-oxa-7-aza-1,4(1,3),2(1,2)-tribenzenacyclooctaphane-8-yl)acetate
Ether bond, CuI/K2CO3/(1R,2R)-N1,N2-dimethylcyclohexane-1,2-diamine, 1,4-dioxane, 52.0 mM, 100.0 °C
  ring closure, isolated yield: 74.2%

## CCOC(=O)C[C@@H]1NC(=O)C(n2cc(CCN3CC(F)C3)c(C(F)(F)F)cc2=O)c2cc(ccc2F)Oc2cccc(C)c2-c2cc(C)c(F)c1c2F (some centres unmarked)
From CCOC(=O)C[C@H](NC(=O)C(c1cc(Br)ccc1F)n1cc(CCN2CC(F)C2)c(C(F)(F)F)cc1=O)c1c(F)c(C)cc(-c2c(C)cccc2O)c1F, ether bond, CuI/K2CO3/(1R,2R)-N1,N2-dimethylcyclohexane-1,2-diamine, 1,4-dioxane, 48.0 mM, 100.0 °C
  ring closure, isolated yield: 72%

## CCOC(=O)C[C@@H]1NC(=O)C(n2cc(CCN3CC(F)C3)c(C(F)(F)F)cc2=O)c2cc(ccc2F)Oc2cc(C(C)(C)O)cc(C)c2-c2cc(C)c(F)c1c2 (some centres unmarked)
From CCOC(=O)C[C@H](NC(=O)C(c1cc(Br)ccc1F)n1cc(CCN2CC(F)C2)c(C(F)(F)F)cc1=O)c1cc(-c2c(C)cc(C(C)(C)O)cc2O)cc(C)c1F, ether bond, CuI/(1R,2R)-N1,N2-dimethylcyclohexane-1,2-diamine/K2CO3, 1,4-dioxane, 40.0 mM, 100.0 °C, 16.0 h
  ring closure, isolated yield: 28.3%

## CCOC(=O)C[C@@H]1NC(=O)C(n2cc(CCN3CC(F)C3)c(C(F)(F)F)cc2=O)c2cc(ccc2F)Oc2cccc(C)c2-c2cc(Cl)c(F)c1c2 (stereo in doubt)
From CCOC(=O)C[C@H](NC(=O)C(c1cc(Br)ccc1F)n1cc(CCN2CC(F)C2)c(C(F)(F)F)cc1=O)c1cc(-c2c(C)cccc2O)cc(Cl)c1F, ether bond, CuI/K2CO3/(1R,2R)-N1,N2-dimethylcyclohexane-1,2-diamine, 1,4-dioxane, 46.7 mM, 100.0 °C, 16.0 h
  ring closure, isolated yield: 64.9%

## ethyl 2-[(14S,17S)-14-{5-[3-(azetidin-1-yl) propyl]-2-oxo-4-(trifluoromethyl) pyridin-1-yl}-12,19-difluoro-3,20-dimethyl-15-oxo-8-oxa-16-azatetracyclo [16.3.1.1^{9,13}.0^{2,7}] tricosa-1(22),2(7),3,5,9,11,13(23),18,20-nonaen-17-yl] acetate
Ether bond, CuI/K2CO3/(1R,2R)-N1,N2-dimethylcyclohexane-1,2-diamine, 1,4-dioxane, 46.7 mM, 100.0 °C
  ring closure, isolated yield: 62.8%

## CCOC(=O)C[C@@H]1NC(=O)C(n2cc(CCN3CC(F)C3)c(C(F)(F)F)cc2=O)c2cc(ccc2F)Oc2ccc(F)cc2-c2cc(C)c(F)c1c2 (some centres unmarked)
From CCOC(=O)C[C@H](NC(=O)C(c1cc(Br)ccc1F)n1cc(CCN2CC(F)C2)c(C(F)(F)F)cc1=O)c1cc(-c2cc(F)ccc2O)cc(C)c1F, ether bond, CuI/(1R,2R)-N1,N2-dimethylcyclohexane-1,2-diamine/K2CO3, dioxane, 95.0 mM, 100.0 °C, 3.0 h
  ring closure, isolated yield: 54.4%

## CCOC(=O)C[C@@H]1NC(=O)C(n2cc(CCN3CC(F)C3)c(C(F)(F)F)cc2=O)c2cc(ccc2C)Oc2cccc(C)c2-c2cc(C)c(F)c1c2 (some centres unmarked)
From CCOC(=O)C[C@H](NC(=O)C(c1cc(Br)ccc1C)n1cc(CCN2CC(F)C2)c(C(F)(F)F)cc1=O)c1cc(-c2c(C)cccc2O)cc(C)c1F, ether bond, CuI/K2CO3/(1R,2R)-N1,N2-dimethylcyclohexane-1,2-diamine, 1,4-dioxane, 100.0 °C
  ring closure, isolated yield: 88.9%
